In brackets after ≈: the same amount, converted by molar mass. Entries after “also recorded” stand apart in the source; their conditions may differ.
Experiments:
[1] = test system: C57BL/6J mice; assay: Insulin tolerance test (ITT); format: in vivo, mouse; conditions: 50 mg kg^−1 ip
Description: AUC for ITT were calculated to evaluate insulin sensitivity. Blood glucose levels were determined using an Accu-Check glucometer (Roche Diagnostics). […] The protocol was approved by the ethical comitee CEEA Nord Pas de Calais (CEEA75).

[2] = test system: NOD mice; assay: Oral glucose tolerance test (OGTT) in NOD mice; format: in vivo, mouse; conditions: 50 mg kg^−1 ip
Description: (§1) OGTT and IPGTT were performed on 11 to 16 week-old male or female mice (n=4–7 per experimental group). C57BL/6J mice were purchased from Charles River Laboratories (France), Stock no. 000664. C57BL/6J Ide−/− mice were obtained from Guenette[20] and bred in the animal facility of INSERM U1151. WT C57BL/6J mice of the same genetic background were bred in the same animal facility in parallel. NOD Ide−/− mice were generated by backcrossing C57BL/6J Ide−/− mice with NOD wt mice bred in the animal facility of INSERM U1151 and maintained in this facility together with WT NOD mice. Normoglycemic WT and Ide−/− female NOD mice aged 14 weeks were used for OGTTs. Following a 6 h fasting period, a small tail cut was made, basal blood glucose was determined. […] Fifteen minutes later, blood glucose concentrations were measured before and after (up to 120 min, as shown) oral (2 g kg^−1 or 3 g kg^−1, as shown) or intraperitoneal (1.5 g kg^−1) glucose administration. […] Blood glucose levels were determined using an Accu-Check glucometer (Roche Diagnostics). Areas under the curves (AUC) for OGTT and IPGTT were calculated to evaluate glucose tolerance. Plasma insulin concentrations were measured by ELISA (cat. no. 10-1247-01,Mercodia) in blood samples collected 15 min before and 15 and 90 min relative to oral glucose injection. […]

[3] = test system: C57BL/6J mice; assay: Intraperitoneal glucose tolerance test (IPGTT); format: in vivo, mouse; conditions: 50 mg kg^−1 ip, intraperitoneal glucose 1.5 g kg^−1
Description: as §1

[4] = Stability in rat plasma; format: in vitro ADME; conditions: both sexes, 37 °C, read-out: Plasma stability r (t1/2)
Description: Incubations were performed in duplicate in Eppendorf tubes. The plasma (mouse plasma, rat plasma (mixed gender), human (mixed gender, all lithium heparine, from Sera Laboratories International) or cell culture medium (differenciation medium: DMEM (Life Technologies, Ref 41965), 0.4 % gentamicine, 10 % FCS (Lonza, Ref DE14-801F) or proliferation medium: DMEM (Life Technologies, Ref 41965), 0.4 % gentamicine, 2 % horse serum (Gbco, Ref16050) was pre-incubated 5 min at 37 °C before the addition of test compounds to a final concentration of 10 μM (1% DMSO maximum). At the defined time points, 50 μl from each tube were removed to another tube containing 450 μl of cold CH3CN+ internal standard (1 μM). After centrifugation (10 min at 10,000 r.p.m.), supernatants are analysed. The degradation half-life (t1/2) values were calculated as t1/2=0.693/k where k is the first-order degradation rate constant. The degradation rate constant (k) was estimated by one-phase exponential decay nonlinear regression analysis of the degradation time course data using Xlfit software (version 2.1.2 or higher) from IDBS.Ltd.

[5] = Solubility in PBS pH 7.4; format: physicochemical; conditions: aqueous buffer, kinetic from dmso stock
Description: Ten microlitre of a 10 mM solution in DMSO of the compound are diluted either in 490 μl of PBS pH 7.4 or in organic solvent MeOH in a 700 μl-microtube (in triplicate). The tubes are gently shaken 24 h at room temperature, then centrifuged for 5 min at 4,000 r.p.m. The mixtures are filtered over 0.45 μm filters (Millex-LH Millipore). Twenty microlitre of sample are diluted in 180 μl of MeOH. The solubility is determined by the ratio of mass signal area PBS/ organic solvent. Forty microlitre of a 10 mM solution in DMSO of the compound were diluted in 1.960 ml of a 1/1 octanol /PBS at pH 7.4 mixture. The mixture was gently shaken 2 h at room temperature. Twenty microlitre of each phase was diluted in 480 μl of MeOH and analysed by LC–MS. Each compound is tested in triplicate. Log D was determined as the logarithm of the ratio of concentration of product in octanol and PBS respectively, determined by mass signals.

O=C(C[C@@H](Cc1ccc2ccccc2c1)n1cc(CNC(=O)c2ccc(F)cc2)nn1)NO [Compound 1]
serum insulin concentrations during ITT ([1]; 0.75 U kg^−1 insulin, significant at 30 min): slightly increased
glucose lowering effect of insulin during ITT ([1]; 30 and 60 min): Augments insulin action in vivo; also recorded: tended to enhance
glucose tolerance in OGTT, WT NOD ([2]; 14 week-old female WT NOD mice, 3 g kg^−1 glucose): strong impairment of glucose tolerance
insulinaemia in OGTT, WT NOD ([2]; WT NOD mice): hyperinsulinemia
plasma glucose / glucose tolerance in IPGTT [3]: Impairs glucose tolerance in IPGTT
half-life at 10 μM [4]: 13.3 h
solubility at 24 h [5]: 58 µM (≈ 26 µg/mL)

Source: article PMC4580987, “Catalytic site inhibition of insulin-degrading enzyme by a small molecule induces glucose intolerance in mice” (Nature Communications, 2015)
